Non-standard residues stand in square brackets, D forms with d. Residues, ends and D or L forms follow the SMILES beside them. *: point of attachment. Leu(ol) = CC(C)C[C@H](N)CO; Octanoyl = CCCCCCCC(=O)*; Aib = CC(C)(N)C(=O)O
Legend:
[1] = system: Pyricularia oryzae IT10 strain on barley leaves (cv. Alora); conditions: in vivo
[2] = system: Pyricularia oryzae IT10 strain on rice (cv. Vialone Nano); conditions: in vivo
[3] = system: Pyricularia oryzae (strains AP, Guy11, I203 and IT10); conditions: for inhibition of fungal growth compared to the untreated control: 96 h, 50 μM, pH 6.85
[4] = system: P. oryzae (IT10 strain) conidia; assay type: cell-based, Pyricularia oryzae
P. oryzae AP strain = assay type: cell-based, Pyricularia oryzae
P. oryzae Guy11 strain = assay type: cell-based, Pyricularia oryzae
P. oryzae I203 strain = assay type: cell-based, Pyricularia oryzae
P. oryzae IT10 strain = assay type: cell-based, Pyricularia oryzae
P. oryzae conidia = assay type: cell-based, Pyricularia oryzae; conditions: pH 7

Compound | reduction of blast lesion area in comparison with untreated barley leaves [1] | significance of lesion inhibition compared to the Control [1] | reduction in Disease Severity Index (DSI) [2] | inhibition of fungal growth compared to the untreated control [3] | morphology and germination of treated conidia [4] | inhibition of fungal growth (in words) [3] | also measured
CCCCCCCC(=O)NC(C)(C)C(=O)N[C@@H](CCCCN)C(=O)N[C@@H](CC(C)C)C(=O)NC(C)(C)C(=O)NCC(=O)NCC(=O)N[C@@H](CC(C)C)C(=O)NC(C)(C)C(=O)NCC(=O)N[C@H](C(=O)N[C@@H](CC(C)C)C(N)=O)[C@@H](C)CC [Pep 2Rink] (Octanoyl-[Aib]KL[Aib]GGL[Aib]GIL-NH2) | about 92% | Significant inhibition | 65-70% | more than 90% |  |  | representative lesions on barley leaves (in words) [1]: Almost no lesions; representative lesions on rice leaves (in words) [2]: reduced lesions
CCCCCCCC(=O)NC(C)(C)C(=O)N[C@@H](CCCCN)C(=O)N[C@@H](CC(C)C)C(=O)NC(C)(C)C(=O)NCC(=O)NCC(=O)N[C@@H](CC(C)C)C(=O)NC(C)(C)C(=O)NCC(=O)N[C@H](C(=O)N[C@H](CO)CC(C)C)[C@@H](C)CC [Pep 2] (Octanoyl-[Aib]KL[Aib]GGL[Aib]GI[Leu(ol)]) | ineffective |  |  | more than 90% | important morphological changes |  | 
CCCCCCCC(=O)NC(C)(C)C(=O)N[C@@H](CCCCN)C(=O)N[C@@H](CCCCN)C(=O)N[C@@H](CC(C)C)C(=O)NC(C)(C)C(=O)NCC(=O)N[C@H](C(=O)N[C@H](CO)CC(C)C)[C@@H](C)CC [Pep 4C] (Octanoyl-[Aib]KKL[Aib]GI[Leu(ol)]) | ~70% | Significant inhibition |  | more than 90% | important morphological changes |  | 
CCCCCCCC(=O)NC(C)(C)C(=O)NCC(=O)N[C@@H](CC(C)C)C(=O)NC(C)(C)C(=O)N[C@@H](CCCCN)C(=O)N[C@@H](CCCCN)C(=O)N[C@@H](CC(C)C)C(=O)NC(C)(C)C(=O)NCC(=O)N[C@H](C(=O)N[C@H](CO)CC(C)C)[C@@H](C)CC [Pep 4] | higher than 95% | Significant inhibition | 65-70% | more than 90% | important morphological changes |  | 
CCCCCCCC(=O)NC(C)(C)C(=O)N[C@@H](CCCCN)C(=O)N[C@@H](CC(C)C)C(=O)NC(C)(C)C(=O)N[C@@H](CCCCN)C(=O)NCC(=O)N[C@@H](CC(C)C)C(=O)NC(C)(C)C(=O)N[C@@H](CCCCN)C(=O)N[C@H](C(=O)N[C@H](CO)CC(C)C)[C@@H](C)CC [Pep 5] (Octanoyl-[Aib]KL[Aib]KGL[Aib]KI[Leu(ol)]) | higher than 95% | Significant inhibition | 65-70% | more than 90% | important morphological changes |  | representative lesions on rice leaves (in words) [2]: reduced lesions
H-FKR[Aib]KK[Aib]FKK[Aib]WNWK-NH2 [Pep 12] |  |  |  |  |  | relatively little or no inhibition against one or two strains | 
Palmitoyl-His-Ala-Ala-His-Lys(ε-Ser)-Gly-COOH [Pep 19] |  |  |  |  | germinated normally and did not show any morphological alteration | relatively little or no inhibition against one or two strains | inhibition of AP strain (in words) (P. oryzae AP strain): did not inhibit; inhibition of Guy11 strain (in words) (P. oryzae Guy11 strain): did not inhibit; inhibition of I203 strain (in words) (P. oryzae I203 strain): did not inhibit; inhibition of IT10 strain (in words) (P. oryzae IT10 strain): partially inhibited
nOct-Aib-Gly-Leu-Aib-Gly-Gly-Leu-Aib-Gly-Ile-Lol [Trichogin, Trichogin GA IV, reference compound] | ineffective |  |  |  |  |  | activity of trichogin against P. oryzae in vitro [3]: ineffective
nOct-Aib-Gly-Leu-Aib-Gly-Gly-Leu-Api-Gly-Ile-Lol [Pep 8Api] | higher than 95% | Significant inhibition | 50-55% |  | important morphological changes | relatively little or no inhibition against one or two strains | 
nOct-Aib-Gly-Leu-Aib-Gly-Lys-Leu-Aib-Gly-Ile-Lol [Pep 22] | ineffective |  |  |  |  | relatively little or no inhibition against one or two strains | 
nOct-Aib-Gly-Leu-Aib-Lys-Aib-Leu-Aib-Gly-Ile-Lol [Pep 6] |  |  |  |  | germinated normally and did not show any morphological alteration |  | mycelium growth in the presence of the peptide versus untreated control (P. oryzae conidia): grew better than the untreated control
nOct-Aib-Gly-Leu-Aib-Lys-Gly-Leu-Aib-Gly-Ile-Lol [Pep 3] |  |  | inefficacy |  |  |  | 
nOct-Aib-Gly-Leu-Aib-Lys-Lys-Leu—Leu-NH2 [Pep 4C1] | ineffective |  |  |  |  | relatively little or no inhibition against one or two strains | 
nOct-Aib-Lys-Leu-Aib-Gly-Lys-Leu-Aib-Gly-Ile-Lol [Pep 7] | higher than 95% | Significant inhibition | 65-70% |  |  | relatively little or no inhibition against one or two strains | 
nOct-Aib—Lys-Lys-Leu-Aib-Gly-Ile-Leu-NH2 [Pep 4C2] | about 75% | Significant inhibition | 65-70% |  |  | relatively little or no inhibition against one or two strains | representative lesions on rice leaves (in words) [2]: reduced lesions

From paper PMC8551967 (Frontiers in Microbiology, 2021)
